In brackets after ≈: the same amount, converted by molar mass. Like-named read-outs stand apart in the source and are kept apart here.
Legend:
[1] = tested on: MRSA CCARM 3167; test: MIC against MRSA CCARM 3167; format: cell-based; settings: Staphylococcus aureus
Method: (§1) The MICs of the antimicrobial agents were determined by a twofold microdilution broth method, as described by the Clinical and Laboratory Standards Institute. Briefly, test organisms were grown on Mueller–Hinton agar (MHA, BD Difco, Sparks, MD, USA) plates, subcultured into cation-adjusted Mueller–Hinton broth (CAMHB, BD Difco, Sparks, MD, USA), and incubated for 18 h at 35 °C. For S. pneumoniae culture, 5% sheep blood (Hanil Comed, Seongnam, Korea) was added. The cultured bacteria were diluted using phosphate-buffered saline (PBS) to achieve a bacterial cell density of approximately 5 × 10^6 CFU/mL. All test organisms were loaded into 96-well plates containing serial dilutions of the antimicrobial agents to achieve a concentration of 5 × 10^4 CFU/well. The plates were incubated at 35 °C for 18–20 h and examined for bacterial growth.

[2] = tested on: S. aureus Giorgio; test: MIC against S. aureus Giorgio; format: cell-based, Staphylococcus aureus; settings: Staphylococcus aureus
Method: as §1

[3] = tested on: S. pneumoniae; test: MIC, broth microdilution, clinical isolates: S. pneumoniae; format: cell-based, Streptococcus pneumoniae
Method: (§2) To assess the MICs for antibiotic susceptibility, Gram-positive bacteria isolated from human clinical specimens were obtained from several general hospitals in Seoul, Korea, during 2002–2018. Staphylococcus aureus Giorgio and Streptococcus pneumoniae ATCC49619 were used to test in vivo efficacies against […], in mice.
as §1

[4] = tested on: VRE 3; test: MIC against VRE 3; format: cell-based, vancomycin-resistant Enterococcus; settings: Enterococcus
Method: as §1

[5] = tested on: S. aureus Giorgio; test: Neutropenic mouse thigh infection model; format: in vivo, female ICR mice
Method: (§3) For the respiratory tract infection model, neutropenic mice were anesthetized and intranasally inoculated with a 50 μL suspension of S. pneumoniae ATCC49619 (4.4 × 10^8 CFU/mL). For the thigh infection model, the neutropenic mice were administered an intramuscular injection of a 100 μL suspension of S. aureus Giorgio (1 × 10^6 CFU/mL) into both thighs. For both models, four mice were included in each group. At 2 h after infection, two mice were sacrificed, and the infected thighs or lungs (n = 4) were excised to determine the initial bacterial levels. […] At 24 h after infection, the mice were sacrificed by cervical dislocation; their thighs or lungs were removed, homogenized, serially diluted with saline, and plated onto MHA to count the number of bacteria remaining. The number of viable bacterial cells (CFU) in the thighs or lungs of vehicle- and drug-treated mice was determined.

[6] = tested on: S. aureus Giorgio; test: Time-kill assay, S. aureus Giorgio; format: cell-based, Staphylococcus aureus
Method: (§4) Time-kill analysis was performed by the NCCLS M26-A method. The test organisms (S. aureus Giorgio, S. pneumoniae ATCC49619, MRSA CCARM 3167, and VRE 3) incubated in CAMHB for 18 h at 35 °C were diluted to 10^5 CFU/mL with fresh CAMHB, and the diluted cultures were preincubated for 2 h. For S. pneumoniae culture, 5% sheep blood (Hanil Comed, Seongnam, Korea) was added. […] Culture aliquots (0.1 mL) were removed after 0, 2, 4, 6 and 24 h of incubation, and serial 10-fold dilutions were prepared in saline as needed. The numbers of viable cells were determined on drug-free MHA plates after 20 h of incubation. A compound was considered bactericidal if the original inoculum was reduced by 3 log CFU/mL (99.9%) at each concentration or was considered bacteriostatic if the inoculum was reduced by 0–3 log CFU/mL.

[7] = tested on: S. pneumoniae ATCC49619; test: Neutropenic mouse respiratory tract infection model; format: in vivo, female ICR mice; settings: for reduction of the starting bacterial burden compared to the 2-h control group: second trial
Method: as §3

[8] = tested on: CNS (coagulase-negative staphylococci); test: MIC, broth microdilution, clinical isolates: CNS; format: cell-based
Method: as §2, §1

[9] = tested on: S. pneumoniae ATCC49619; test: Time-kill assay, S. pneumoniae ATCC49619; format: cell-based, Streptococcus pneumoniae
Method: as §4

[10] = tested on: S. pneumoniae ATCC49619; test: MIC against S. pneumoniae ATCC49619; format: cell-based; settings: Streptococcus pneumoniae, ATCC49619
Method: as §1

[11] = tested on: VRE 3; test: Time-kill assay, VRE 3; format: cell-based, vancomycin-resistant Enterococcus
Method: as §4

[12] = tested on: Vancomycin-sensitive E. faecalis; test: MIC, broth microdilution, clinical isolates: vancomycin-sensitive E. faecalis; format: cell-based, Enterococcus faecalis; settings: Enterococcus faecalis
Method: as §2, §1

[13] = tested on: VRE; test: MIC, broth microdilution, clinical isolates: VRE; format: cell-based, vancomycin-resistant Enterococcus; settings: Enterococcus, VRE
Method: as §2, §1

[14] = in vivo; settings: female, ICR, mouse, plasma
[15] = tested on: Vancomycin-sensitive E. faecium; test: MIC, broth microdilution, clinical isolates: vancomycin-sensitive E. faecium; format: cell-based, Enterococcus faecium; settings: Enterococcus faecium
Method: as §2, §1

[16] = tested on: MSSA; test: MIC, broth microdilution, clinical isolates: MSSA; format: cell-based; settings: Staphylococcus aureus
Method: as §2, §1

[17] = tested on: MRSA CCARM 3167; test: Time-kill assay, MRSA CCARM 3167; format: cell-based, Staphylococcus aureus
Method: as §4

[18] = tested on: MRSA; test: MIC, broth microdilution, clinical isolates: MRSA; format: cell-based, Staphylococcus aureus; settings: for MIC50 / MIC90: Staphylococcus aureus, MRSA
Method: as §2, §1

[19] = cited from earlier work
[20] = tested on: S. aureus; parameters: method as in PMID 28416551; settings: s.c., cited from earlier work
[21] = s.c. 4 and 20 mg/kg at 3 and 6 h after infection
[22] = 32 clinical isolates, read-out: MIC50
[23] = 32 clinical isolates, read-out: MIC90

`CO[C@@H](C(N)=O)[C@H](NC(=O)c1ccc(NC(=O)c2ccc([N+](=O)[O-])cc2)cc1)C(=O)Nc1ccc(C(=O)Nc2ccc(C(=O)Nc3ccc(C(=O)O)cc3OC(C)C)c(O)c2OC(C)C)cc1` [DH-coralmycin A] showed an MIC ([1]; read-out: MIC) of 0.25 µg/mL (≈ 0.272 µM), an MIC ([2]; read-out: MIC) of 0.06 µg/mL (≈ 0.0652 µM) and an MIC50 ([3]; Streptococcus pneumoniae, 27 clinical isolates, read-out: MIC50) of 0.5 µg/mL (≈ 0.544 µM). For the same compound, the MIC90 ([3]; Streptococcus pneumoniae, 27 clinical isolates, read-out: MIC90) was 4 µg/mL (≈ 4.35 µM), the MIC ([4]; read-out: MIC) was 2 µg/mL (≈ 2.17 µM) and the “antibacterial effect in thigh infection model” value ([5]; 20 mg/kg bid) was “almost no antibacterial effect”. The “antibacterial effect in thigh infection model” value [5, 21] was “almost no antibacterial effect”, the time-kill activity ([6]; 1× MIC) was “bacteriostatic (considered bacteriostatic if the inoculum was reduced by 0–3 log CFU/mL)” and the time-kill activity ([6]; 2× and 4× MIC, 24 h) was “bactericidal (considered bactericidal if the original inoculum was reduced by 3 log CFU/mL (99.9%) at each concentration)”. For the same compound, the “in vivo effect (bacteriostatic or bactericidal)” value ([7]; 4 mg/kg bid s.c.) was “static effect”, the “in vivo effect (bacteriostatic or bactericidal)” value ([7]; 20 mg/kg bid s.c.) was “static effect” and the “in vivo effect (bacteriostatic or bactericidal)” value ([7]; 100 mg/kg bid s.c.) was “bactericidal effects”. For the same compound, the “antibacterial effect in respiratory tract infection model” value ([7]; first experiment, s.c. 4 and 20 mg/kg at 3 and 6 h after infection) was “significant antibacterial effects”, the “reduction of the starting bacterial burden compared to the 2-h control group” value ([7]; s.c. 100 mg/kg bid) was 0.96 log10 CFU/lung and the MIC50 ([8]; 31 clinical isolates, read-out: MIC50) was 1 µg/mL (≈ 1.09 µM). The MIC90 ([8]; 31 clinical isolates, read-out: MIC90) was 16 µg/mL (≈ 17.4 µM), the time-kill activity ([9]; 1× MIC) was “bacteriostatic (considered bacteriostatic if the inoculum was reduced by 0–3 log CFU/mL)” and the time-kill activity ([9]; 2× and 4× MIC, 24 h) was “bactericidal (considered bactericidal if the original inoculum was reduced by 3 log CFU/mL (99.9%) at each concentration)”. For the same compound, the MIC ([10]; read-out: MIC) was 0.25 µg/mL (≈ 0.272 µM), the time-kill activity ([11]; 1× MIC) was “bacteriostatic (considered bacteriostatic if the inoculum was reduced by 0–3 log CFU/mL)” and the time-kill activity ([11]; 2× and 4× MIC, 24 h) was “bactericidal (considered bactericidal if the original inoculum was reduced by 3 log CFU/mL (99.9%) at each concentration)”. The MIC50 [12, 22] was 2 µg/mL (≈ 2.17 µM), the MIC90 [12, 23] was 4 µg/mL (≈ 4.35 µM) and the MIC50 ([13]; 46 clinical isolates, read-out: MIC50) was 4 µg/mL (≈ 4.35 µM). For the same compound, the MIC90 ([13]; 46 clinical isolates, read-out: MIC90) was 16 µg/mL (≈ 17.4 µM), the half-life ([14]; iv, 2 mg/kg) was 2.16 ± 1.08 h and the half-life ([14]; sc, 20 mg/kg) was 7.01 ± 1.22 h. It also gave an MIC50 [15, 22] of 1 µg/mL (≈ 1.09 µM), an MIC90 [15, 23] of 4 µg/mL (≈ 4.35 µM) and an MIC50 ([16]; 26 clinical isolates, read-out: MIC50) of 1 µg/mL (≈ 1.09 µM). For the same compound, the MIC90 ([16]; 26 clinical isolates, read-out: MIC90) was 2 µg/mL (≈ 2.17 µM), the time-kill activity ([17]; 1× MIC) was “bacteriostatic (considered bacteriostatic if the inoculum was reduced by 0–3 log CFU/mL)” and the time-kill activity ([17]; 2× and 4× MIC, 24 h) was “bactericidal (considered bactericidal if the original inoculum was reduced by 3 log CFU/mL (99.9%) at each concentration)”. The MIC50 ([18]; 42 clinical isolates, read-out: MIC50) was 4 µg/mL (≈ 4.35 µM), the MIC90 ([18]; 42 clinical isolates, read-out: MIC90) was 8 µg/mL (≈ 8.7 µM) and the “times less active than coralmycin A as evidenced by the MIC90” value ([18]; against MRSA, CNS, and VRE) was 8 to 16 times.
`CN[C@H](CC(C)C)C(=O)N[C@H]1C(=O)N[C@@H](CC(N)=O)C(=O)N[C@H]2C(=O)N[C@H]3C(=O)N[C@H](C(=O)N[C@H](C(=O)O)c4cc(O)cc(O)c4-c4cc3ccc4O)[C@H](O)c3ccc(c(Cl)c3)Oc3cc2cc(c3O[C@@H]2O[C@H](CO)[C@@H](O)[C@H](O)[C@H]2O[C@H]2C[C@](C)(N)[C@H](O)[C@H](C)O2)Oc2ccc(cc2Cl)[C@H]1O` [Vancomycin] showed an MIC [1] of 2 µg/mL (≈ 1.38 µM), an MIC [2] of 2 µg/mL (≈ 1.38 µM) and an MIC90 ([3]; 27 clinical isolates) of 0.5 µg/mL (≈ 0.345 µM). For the same compound, the MIC50 ([3]; Streptococcus pneumoniae) was 0.25 µg/mL (≈ 0.173 µM), the MIC90 ([3]; Streptococcus pneumoniae) was 0.5 µg/mL (≈ 0.345 µM) and the MIC [4] was 64 µg/mL (≈ 44.2 µM). For the same compound, the “antibacterial effect in thigh infection model” value [5, 21] was “bacteriostatic activity”, the time-kill activity ([6]; 2× and 4× MIC, 24 h) was “bactericidal (considered bactericidal if the original inoculum was reduced by 3 log CFU/mL (99.9%) at each concentration)” and the “in vivo effect (bacteriostatic or bactericidal)” value ([7]; 4 mg/kg bid s.c.) was “bacteriostatic”. The “in vivo effect (bacteriostatic or bactericidal)” value ([7]; 20 mg/kg bid s.c.) was “bactericidal”, the “reduction of the starting bacterial burden compared to the 2-h control group” value ([7]; 20 mg/kg bid) was 1.46 log10 CFU/lung and the MIC50 [8] was 2 µg/mL (≈ 1.38 µM). The MIC90 [8] was 4 µg/mL (≈ 2.76 µM), the time-kill activity ([9]; 2× and 4× MIC, 24 h) was “bactericidal (considered bactericidal if the original inoculum was reduced by 3 log CFU/mL (99.9%) at each concentration)” and the MIC [10] was 0.5 µg/mL (≈ 0.345 µM). For the same compound, the MIC50 [12] was 2 µg/mL (≈ 1.38 µM), the MIC90 [12] was 2 µg/mL (≈ 1.38 µM) and the MIC50 [13] was over 32 µg/mL. The MIC90 [13] was over 32 µg/mL, the MIC50 [15] was 1 µg/mL (≈ 0.69 µM) and the MIC90 [15] was 2 µg/mL (≈ 1.38 µM). For the same compound, the “bound to plasma proteins” value [19] was 10–50%, the in vivo effect ([20]; high doses of 20–320 mg/kg bid) was “bactericidal effects” and the in vivo effect ([20]; low doses of 0.3–5 mg/kg bid) was “bacteriostatic effects”. For the same compound, the MIC50 [16] was 1 µg/mL (≈ 0.69 µM), the MIC90 [16] was 2 µg/mL (≈ 1.38 µM) and the time-kill activity ([17]; 2× and 4× MIC, 24 h) was “bactericidal (considered bactericidal if the original inoculum was reduced by 3 log CFU/mL (99.9%) at each concentration)”. For the same compound, the MIC50 [18] was 1 µg/mL (≈ 0.69 µM) and the MIC90 [18] was 2 µg/mL (≈ 1.38 µM).
